Marks after values point to notes of the source that are not given here.
How the values were obtained:
female BALB/C mice = test: Vaccination with hepatitis surface antigen (intramuscular), anti-HbsAg end-point dilution ELISA; assay type: in vivo
Experimental: Immunization with recombinant hepatitis B surface antigen (HbsAg; Cortex Biochemical, San Leandro, Calif., USA) combined with aluminum hydroxide (Alum; SuperFos Biosector, Vedback, Denmark) and/or with N3A, N6A or N6B polynucleotides, was conducted on 6-8 week old female BALB/C mice (Charles River, St-Constant, Qc, Canada). Each mouse (5 mice per group) received a single intramuscular injection into the tibialis muscle of a solution containing: Saline (Group 1), HbsAg 1 μg (Group 2), HbsAg 1 μg+Alum 10 μg (Group 3), HbsAg 1 μg+Alum 10 μg+N3A 10 μg (Group 4), HbsAg 1 μg+Alum 10 μg+N3A 100 μg (Group 5), HbsAg 1 μg+Alum 10 μg+N3B10 μg (Group 6), HbsAg 1 μg+Alum 10 μg+N3B100 μg (Group 7), HbsAg 1 μg+Alum 10 μg+N6A 10 μg (Group 8), HbsAg 1 μg+Alum 10 μg+N6A 100 μg (Group 9), HbsAg 1 μg+Alum 10 μg+N6B 10 μg (Group 10) and HbsAg 1 μg+Alum 10 μg+N6B 100 μg (Group 11) in a total volume of 50 μl at day 0 and day 21. Plasma was recovered at day 31.
Antibodies specific to HbsAg were detected and quantified by end-point dilution assay ELISA. Briefly, a solid phase of HbsAg protein (0.1 μg per well, overnight at 4° C.) was used to capture anti-HbsAg in the plasma (1 hour at 37° C.), which were then detected with horseradish peroxidase-conjugated goat anti-mouse IgG (total), IgG1 and IgG2a following the instructions of the manufacturer (Clonetyping system, Southern Biotechnology Inc., Birmingham, Ala., USA). […] Data are expressed in Table 13 as the mean±SD of 5 mice per group.

Human dendritic cells [1] = test: CD86 levels at the DC cell surface (flow cytometry); assay type: cell-based; details: 100 μg, 48 hours
How it was run: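 Human DCs (from donors B and C) at 1.0×10^5 cells/ml were exposed 48 h to 100 μg of 6-base polynucleotides. Surface CD86 was measured by flow cytometry with a PE-conjugated anti-CD86 mAb. Values are % CD86^hi DC after treatment.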

Human dendritic cells [2] = test: MHC-II levels at the DC cell surface (flow cytometry); assay type: cell-based; details: DC from individual B; 100 μg, 48 hours
How it was run: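 Dendritic cells from one donor were seeded at 1.0×10^5 cells/ml and treated for 48 h with 100 μg of 6-base polynucleotides. Surface MHC II was then measured by flow cytometry with a FITC-conjugated anti-MHC II antibody. Values are the percentage of MHC II^hi DC.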

Human dendritic cells [3] = test: Induction of IL-12 production by DC (ELISA); assay type: cell-based; details: 100 μg, 48 hours
How it was run: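 Human DCs from three donors, 1.0×10^5 cells/ml, exposed 48 h to 100 μg of 6-base polynucleotides. IL-12 in culture supernatant measured by ELISA. Values given as fold increase over untreated control cells.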

Human dendritic cells [4] = test: CD40 levels at the DC cell surface (flow cytometry); assay type: cell-based; details: 100 μg, 48 hours
How it was run: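 DCs from two donors, seeded at 1.0×10^5 cells/ml, were exposed for 48 h to 100 μg of 6-base polynucleotides. Surface CD40 was then measured by flow cytometry with a FITC anti-CD40 mAb. Values are the percentage of CD40^hi DC, meaning above-baseline CD40 expression.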

Human dendritic cells [5] = test: Endocytosis of FITC-dextran by DC; assay type: cell-based; details: DC from individual B, 100 μg, 24 hours, untreated control = 100
Experimental: Human dendritic cells were obtained from Clonetics (San Diego, Calif., USA) and were cultured in the medium recommended by Clonetics. DC were obtained from three different individuals (see Table 1). Major histocompatability typing was performed on each of these individuals and several of the HLA (human leukocyte antigens) types are shown.
DC from individual B were seeded in 1.0 ml at 1.0×10^5 cells/ml in 6-well flat-bottomed tissue culture plates for 24 hours with 1 mg/ml of FITC-dextran (20 kDa; Sigma-Aldrich) in the absence or presence of 100 μg of 6 base N2A, N2B, N3A, N3B, N5A, N5B, and N6B polynucleotides at 4° C. (control cell surface binding of FITC-dextran) and 37° C. (to assess endocytosis). Cells were washed three times with ice-cold phosphate buffered saline and analyzed by flow cytometry using CELLQuest Pro. Results are expressed as relative endocytic rate (normalized Δ Mean Fluorescence Value (Δ MFV)). Δ MFV=MFV of DC exposed to FITC-dextran at 37° C.−MFV of DC exposed to FITC-dextran at 4° C. Δ MFV=(ΔMFVsequence/ΔMFVcontrol)×100.

[6] = HbsAg 1 μg + Alum 10 μg + polynucleotide 10 μg i.m. day 0 and 21, plasma day 31
[7] = HbsAg 1 μg + Alum 10 μg + polynucleotide 100 μg i.m. day 0 and 21, plasma day 31

| Substance | End-point titers IgG1, mean ± SD (female BALB/C mice; [6]) | End-point titers IgG2a, mean ± SD (female BALB/C mice; [6]) | End-point titers IgG total, mean ± SD (female BALB/C mice; [6]) | End-point titers IgG1, mean ± SD (female BALB/C mice; [7]) | End-point titers IgG2a, mean ± SD (female BALB/C mice; [7]) | End-point titers IgG total, mean ± SD (female BALB/C mice; [7]) | The percentage of CD86^hi DC following treatment (Human dendritic cells [1]; DC from individual B) | The percentage of CD86^hi DC following treatment (Human dendritic cells [1]; DC from individual C) | The percentage of MHC-II^hi DC following treatment (Human dendritic cells [2]) [%] | IL-12 production by DC (fold increase compared to untreated DC) (Human dendritic cells [3]; DC isolated from individual A) [fold] | IL-12 production by DC (fold increase compared to untreated DC) (Human dendritic cells [3]; DC isolated from individual B) [fold] | IL-12 production by DC (fold increase compared to untreated DC) (Human dendritic cells [3]; DC isolated from individual C) [fold] | The percentage of CD40^hi DC following treatment (Human dendritic cells [4]; DC from individual B) | The percentage of CD40^hi DC following treatment (Human dendritic cells [4]; DC from individual C) [%] | Relative endocytic rate (normalized Δ MFV) (Human dendritic cells [5]) |
| --- | --- | --- | --- | --- | --- | --- | --- | --- | --- | --- | --- | --- | --- | --- | --- |
| 5′GGGAGG3′ [N6A] (unmodified DNA) | 2010 ± 2187 | 250 ± 257 | 439 ± 705 | 6420 ± 2528 | 291 ± 154 | 1185 ± 607 | 24** % | 18% | 25 | 1.0 | 1.0 | 1.0 | 35** % | 15 |  |
| 5′GGGAGG3′ [N6B] (DNA, backbone not given here; further chemistry not fully specified) | 2880 ± 1126 | 187 ± 46 | 551 ± 309 | 3560 ± 1210 | 205 ± 76 | 660 ± 364 | 15% | 33% | 27 | 1.3 | 1.4 | 4.1 | 28** % | 15 | 23 |
| 5′GGGTGG3′ [N3A] | 9300 ± 3365 | 272 ± 255 | 849 ± 386 | 13320 ± 12993 | 860 ± 719 | 1985 ± 1748 | 16% | 37** % | 23 | 1.0 | 1.0 | 1.0 | 36** % | 20 | 156 |
| 5′GGGTGG3′ [N3B] | 3460 ± 1680 | 120 ± 26 | 287 ± 142 | 4460 ± 1884 | 204 ± 129 | 437 ± 305 | 30** % | 39** % | 25 | 5.2 | 17.3 | 14.4 | 33** % | 14 | 211 |
